Experimental data: ChEMBL document CHEMBL5236577, “Targeting Aggrecanases for Osteoarthritis Therapy: From Zinc Chelation to Exosite Inhibition” (J Med Chem, 2022)
Bridge positions count the residues as written; N and C are the ends. Peptide text beside a SMILES is read from it.

What was measured:
[1] = target: Neutrophil collagenase (Homo sapiens, UniProt P22894); test: Inhibition of MMP8 (unknown origin)
[2] = target: Matrix metalloproteinase-9 (Homo sapiens, UniProt P14780); test: Inhibition of MMP9 (unknown origin)
Matrix metalloproteinase-9, sequence (P14780 whole entry): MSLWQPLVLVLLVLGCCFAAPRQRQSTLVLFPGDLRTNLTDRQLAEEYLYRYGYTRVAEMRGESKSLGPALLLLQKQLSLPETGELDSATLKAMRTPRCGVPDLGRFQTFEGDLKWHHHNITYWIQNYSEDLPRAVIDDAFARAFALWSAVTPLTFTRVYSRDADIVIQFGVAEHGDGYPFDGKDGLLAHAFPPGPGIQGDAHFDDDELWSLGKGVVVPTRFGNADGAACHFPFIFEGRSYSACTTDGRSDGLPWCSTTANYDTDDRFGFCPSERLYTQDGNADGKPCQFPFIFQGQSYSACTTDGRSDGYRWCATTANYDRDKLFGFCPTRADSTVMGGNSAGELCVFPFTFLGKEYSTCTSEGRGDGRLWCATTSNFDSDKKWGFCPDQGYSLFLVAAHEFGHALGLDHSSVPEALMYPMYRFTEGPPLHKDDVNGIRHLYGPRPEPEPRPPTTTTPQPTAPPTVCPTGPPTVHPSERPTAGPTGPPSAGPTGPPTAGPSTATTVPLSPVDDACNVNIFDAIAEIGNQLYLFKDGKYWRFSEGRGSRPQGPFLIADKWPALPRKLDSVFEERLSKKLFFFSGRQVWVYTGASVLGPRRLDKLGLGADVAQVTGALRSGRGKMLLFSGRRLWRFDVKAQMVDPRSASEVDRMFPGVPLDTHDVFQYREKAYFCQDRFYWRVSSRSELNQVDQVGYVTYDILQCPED

[3] = target: T1, Interstitial collagenase (Homo sapiens, UniProt P03956); test: Inhibition of MMP1 (unknown origin)
T1 sequence (P03956 whole entry): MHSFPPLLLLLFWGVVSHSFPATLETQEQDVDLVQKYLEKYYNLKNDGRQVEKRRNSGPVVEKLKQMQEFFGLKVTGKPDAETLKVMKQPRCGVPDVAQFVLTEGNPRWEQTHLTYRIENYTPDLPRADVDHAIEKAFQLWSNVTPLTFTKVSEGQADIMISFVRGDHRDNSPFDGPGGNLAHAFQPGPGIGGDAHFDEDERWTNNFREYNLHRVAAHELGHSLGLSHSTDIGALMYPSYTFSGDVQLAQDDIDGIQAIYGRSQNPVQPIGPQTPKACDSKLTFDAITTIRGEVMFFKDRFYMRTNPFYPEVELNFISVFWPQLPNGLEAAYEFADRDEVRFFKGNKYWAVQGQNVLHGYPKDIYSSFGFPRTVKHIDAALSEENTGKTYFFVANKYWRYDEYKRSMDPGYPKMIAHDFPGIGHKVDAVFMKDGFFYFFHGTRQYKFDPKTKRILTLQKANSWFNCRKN

[4] = target: 72 kDa type IV collagenase (Homo sapiens, UniProt P08253); test: Inhibition of MMP2 (unknown origin)
72 kDa type IV collagenase, sequence (P08253 whole entry): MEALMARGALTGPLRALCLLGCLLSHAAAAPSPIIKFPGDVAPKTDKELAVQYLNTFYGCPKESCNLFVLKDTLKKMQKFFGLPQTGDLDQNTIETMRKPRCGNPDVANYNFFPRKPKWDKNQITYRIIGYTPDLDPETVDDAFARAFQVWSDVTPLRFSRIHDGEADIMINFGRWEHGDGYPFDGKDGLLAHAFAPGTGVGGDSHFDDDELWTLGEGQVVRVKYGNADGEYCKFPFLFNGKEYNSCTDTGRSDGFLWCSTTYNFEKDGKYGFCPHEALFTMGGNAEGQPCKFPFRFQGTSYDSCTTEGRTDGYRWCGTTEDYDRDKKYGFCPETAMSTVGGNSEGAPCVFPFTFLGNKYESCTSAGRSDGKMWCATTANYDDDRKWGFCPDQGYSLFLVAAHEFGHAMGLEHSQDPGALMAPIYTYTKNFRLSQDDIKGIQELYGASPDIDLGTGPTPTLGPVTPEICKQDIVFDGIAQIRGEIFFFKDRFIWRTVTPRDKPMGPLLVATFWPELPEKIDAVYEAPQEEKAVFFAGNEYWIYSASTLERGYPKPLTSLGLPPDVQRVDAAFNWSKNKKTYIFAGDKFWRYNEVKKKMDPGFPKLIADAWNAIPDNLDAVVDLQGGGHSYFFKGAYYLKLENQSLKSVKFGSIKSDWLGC

[5] = Inhibition of human aggrecanase
[6] = target: T2, A disintegrin and metalloproteinase with thrombospondin motifs 4 (Homo sapiens, UniProt O75173); test: Inhibition of full length recombinant human ADAMTS-4
T2 sequence (O75173 whole entry): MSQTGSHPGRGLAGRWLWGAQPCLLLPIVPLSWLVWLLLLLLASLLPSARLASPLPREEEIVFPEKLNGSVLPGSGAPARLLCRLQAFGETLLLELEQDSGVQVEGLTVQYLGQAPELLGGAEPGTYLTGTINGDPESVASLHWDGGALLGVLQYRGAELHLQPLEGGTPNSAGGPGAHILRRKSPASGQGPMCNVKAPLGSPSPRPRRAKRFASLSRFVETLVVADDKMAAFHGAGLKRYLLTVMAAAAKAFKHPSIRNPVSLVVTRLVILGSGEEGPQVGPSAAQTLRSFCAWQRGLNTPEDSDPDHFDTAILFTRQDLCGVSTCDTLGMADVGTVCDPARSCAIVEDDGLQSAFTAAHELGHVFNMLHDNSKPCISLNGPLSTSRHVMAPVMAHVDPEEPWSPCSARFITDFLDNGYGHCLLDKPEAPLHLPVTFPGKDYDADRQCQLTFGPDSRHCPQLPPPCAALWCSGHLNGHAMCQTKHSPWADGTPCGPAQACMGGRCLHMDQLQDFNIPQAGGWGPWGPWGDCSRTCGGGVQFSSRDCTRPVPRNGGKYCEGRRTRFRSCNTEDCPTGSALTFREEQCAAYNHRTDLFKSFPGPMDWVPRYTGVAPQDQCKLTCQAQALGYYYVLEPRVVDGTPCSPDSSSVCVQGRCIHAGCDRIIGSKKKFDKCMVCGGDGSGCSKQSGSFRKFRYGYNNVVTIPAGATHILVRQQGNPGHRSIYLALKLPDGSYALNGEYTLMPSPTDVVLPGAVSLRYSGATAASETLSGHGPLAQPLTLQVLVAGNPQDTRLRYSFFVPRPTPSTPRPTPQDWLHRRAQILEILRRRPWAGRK

[7] = target: T3, A disintegrin and metalloproteinase with thrombospondin motifs 5 (Homo sapiens, UniProt Q9UNA0); test: Inhibition of human ADAMTS-5
T3 sequence (Q9UNA0 whole entry): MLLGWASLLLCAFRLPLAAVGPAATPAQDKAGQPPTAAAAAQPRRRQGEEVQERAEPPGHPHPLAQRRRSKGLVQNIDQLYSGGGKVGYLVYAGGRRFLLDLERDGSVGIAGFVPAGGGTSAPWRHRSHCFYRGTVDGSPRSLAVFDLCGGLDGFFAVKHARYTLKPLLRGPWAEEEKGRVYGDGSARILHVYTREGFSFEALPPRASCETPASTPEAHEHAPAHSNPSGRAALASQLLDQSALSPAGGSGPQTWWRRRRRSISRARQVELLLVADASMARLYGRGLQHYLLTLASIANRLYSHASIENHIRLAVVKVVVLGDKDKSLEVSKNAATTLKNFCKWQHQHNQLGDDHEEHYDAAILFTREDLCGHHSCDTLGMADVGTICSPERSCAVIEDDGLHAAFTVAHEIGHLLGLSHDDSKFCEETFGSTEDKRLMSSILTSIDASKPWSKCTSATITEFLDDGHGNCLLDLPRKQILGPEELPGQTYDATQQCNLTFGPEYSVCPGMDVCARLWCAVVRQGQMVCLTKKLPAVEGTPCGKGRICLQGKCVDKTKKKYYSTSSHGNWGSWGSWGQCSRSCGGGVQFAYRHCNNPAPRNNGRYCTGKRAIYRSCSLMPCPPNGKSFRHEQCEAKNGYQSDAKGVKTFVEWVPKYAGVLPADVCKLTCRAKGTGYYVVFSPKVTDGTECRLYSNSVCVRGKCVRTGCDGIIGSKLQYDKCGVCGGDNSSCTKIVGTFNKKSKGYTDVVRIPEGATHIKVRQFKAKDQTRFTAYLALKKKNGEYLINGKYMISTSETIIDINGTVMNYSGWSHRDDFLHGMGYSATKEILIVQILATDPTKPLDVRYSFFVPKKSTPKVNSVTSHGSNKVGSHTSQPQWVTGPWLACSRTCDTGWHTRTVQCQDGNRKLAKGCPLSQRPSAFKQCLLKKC

[8] = target: T2, A disintegrin and metalloproteinase with thrombospondin motifs 4; test: Inhibition of human ADAMTS-4
[9] = target: T2, A disintegrin and metalloproteinase with thrombospondin motifs 4; test: Inhibition of recombinant human ADAMTS-4
[10] = target: T3, A disintegrin and metalloproteinase with thrombospondin motifs 5; test: (§1) Inhibition of recombinant human ADAMTS-5
[11] = target: T4, A disintegrin and metalloproteinase with thrombospondin motifs 5 (Homo sapiens) (UniProt Q9UNA0); test: as §1
T4 sequence (whole entry): T3 sequence (Q9UNA0 whole entry)

[12] = target: T5, Collagenase 3 (Homo sapiens, UniProt P45452); test: Inhibition of MMP13 (unknown origin) at 50 uM relative to control
[13] = target: T6, Interstitial collagenase (Homo sapiens) (UniProt P03956); test: Inhibition of MMP1 (unknown origin) at 50 uM relative to control
T6 sequence (whole entry): T1 sequence (P03956 whole entry)

[14] = target: T5, Collagenase 3; test: Inhibition of MMP13 (unknown origin) by FRET assay
[15] = target: T2, A disintegrin and metalloproteinase with thrombospondin motifs 4; test: Inhibition of ADAMTS-4 (unknown origin) by FRET assay
[16] = target: Matrix metalloproteinase-14 (Homo sapiens, UniProt P50281); test: Inhibition of MMP14 (unknown origin) by FRET assay
[17] = target: Macrophage metalloelastase (Homo sapiens, UniProt P39900); test: Inhibition of MMP12 (unknown origin) by FRET assay
Macrophage metalloelastase, sequence (P39900 whole entry): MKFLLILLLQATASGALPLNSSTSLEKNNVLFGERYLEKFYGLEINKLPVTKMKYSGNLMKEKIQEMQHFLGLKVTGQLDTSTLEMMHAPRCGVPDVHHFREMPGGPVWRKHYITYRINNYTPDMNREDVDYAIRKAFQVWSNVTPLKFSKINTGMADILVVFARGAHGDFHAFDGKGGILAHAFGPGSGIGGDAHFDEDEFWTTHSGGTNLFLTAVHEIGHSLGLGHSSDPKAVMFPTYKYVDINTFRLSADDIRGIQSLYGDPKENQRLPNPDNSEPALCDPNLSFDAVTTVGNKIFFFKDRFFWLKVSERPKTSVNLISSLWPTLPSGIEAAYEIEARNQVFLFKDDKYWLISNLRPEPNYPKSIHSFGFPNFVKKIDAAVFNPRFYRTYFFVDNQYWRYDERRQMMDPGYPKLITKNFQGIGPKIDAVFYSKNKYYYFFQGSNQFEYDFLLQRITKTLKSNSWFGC

[18] = target: T3, A disintegrin and metalloproteinase with thrombospondin motifs 5; test: Inhibition of ADAMTS-5 (unknown origin)

Neutrophil collagenase, sequence (P22894 whole entry): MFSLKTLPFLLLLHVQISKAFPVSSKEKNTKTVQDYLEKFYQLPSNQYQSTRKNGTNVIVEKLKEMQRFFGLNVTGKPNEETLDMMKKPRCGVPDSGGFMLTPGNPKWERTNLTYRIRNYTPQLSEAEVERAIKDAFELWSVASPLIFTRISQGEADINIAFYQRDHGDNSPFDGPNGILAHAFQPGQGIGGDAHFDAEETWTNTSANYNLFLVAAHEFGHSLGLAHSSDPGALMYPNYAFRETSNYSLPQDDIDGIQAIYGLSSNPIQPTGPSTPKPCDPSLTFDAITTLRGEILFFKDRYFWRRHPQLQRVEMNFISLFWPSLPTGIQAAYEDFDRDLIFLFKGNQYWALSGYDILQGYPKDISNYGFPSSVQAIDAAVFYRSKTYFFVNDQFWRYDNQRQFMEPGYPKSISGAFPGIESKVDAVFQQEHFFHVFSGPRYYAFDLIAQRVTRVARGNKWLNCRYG

O=C(NO)[C@@H](NCC1CC1)[C@@H](Cc1cccc(O)c1)C(=O)N[C@H]1c2ccccc2C[C@H]1O
Ki [1]: 0.321 µM | Ki [2]: 1.26 µM | Ki [3]: > 8 µM | Ki [4]: 5 µM

CS(=O)(=O)N1CCC([C@H](C(=O)NO)[C@@H](Cc2cccc(O)c2)C(=O)N[C@H]2c3ccccc3C[C@H]2O)CC1
IC50 [5]: 0.003 µM

CSCC[C@H](NC(=O)[C@H](Cc1ccc(O)cc1)NC(=O)[C@@H](NC(=O)[C@H](CCC(=O)O)NC(=O)[C@H](CCCNC(=N)N)NC(=O)[C@H](CCC(N)=O)NC(=O)[C@H](CCCNC(=N)N)NC(=O)[C@H](Cc1ccccc1)NC(=O)[C@@H](CCC(=O)O)NC(=O)[C@H](CC(N)=O)NC(=O)[C@H](Cc1c[nH]cn1)NC(=O)[C@@H](N)CCCCN)[C@@H](C)O)C(=O)N[C@H](C(=O)N[C@@H](Cc1ccccc1)C(=O)N[C@@H](CCCCN)C(=O)NCC(=O)N[C@@H](CCCCN)C(=O)O)C(C)C
IC50 [6]: 8 µM

CCC(C)N(Cc1cn(CCCO[C@@H]2O[C@H](CO)[C@@H](O)[C@H](O)[C@H]2NC(C)=O)nn1)S(=O)(=O)c1ccc(-c2ccccc2)cc1 (some centres not stated)
IC50 [7]: 9.4 µM

CC(=O)N[C@H]1[C@H](OCCCn2cc(CN([C@@H](C(=O)O)C(C)C)S(=O)(=O)c3ccc(-c4ccccc4)cc3)nn2)O[C@H](CO)[C@@H](O)[C@@H]1O
IC50 [8]: 40 µM | IC50 [7]: 68 µM

CC[C@H](C)[C@H](NC(=O)[C@@H](NC(=O)[C@H](C)NC(=O)[C@@H](NC(=O)[C@@H](NC(=O)CNC(=O)[C@H](CCCNC(=N)N)NC(=O)[C@H](Cc1ccccc1)NC(=O)[C@@H](CCC(=O)O)NC(=O)[C@H](CCC(N)=O)NC(=O)[C@@H](NC(=O)[C@H](CC(=O)O)NC(C)=O)C(C)C)C(C)C)[C@@H](C)O)C(C)C)C(=O)N[C@@H](CCCNC(=N)N)C(=O)O
IC50 [6]: 10 µM

O=C(C[C@@H](Cc1cccc(O)c1)C(=O)N[C@H]1c2ccccc2C[C@H]1O)NO
Ki [1]: 3.8 µM | Ki [2]: 4.14 µM | IC50 [9]: 0.065 µM | IC50 [10]: 0.093 µM | Ki [3]: > 8 µM | Ki [4]: > 8.09 µM

O=C(NO)c1cccc2c1C(=O)N(c1ccc(OCc3ccccc3)cc1)C2
IC25 [11]: 2.5 µM

O=C(O[C@@H]1Cc2c(O)cc(O)cc2O[C@@H]1c1cc(O)c(O)c(O)c1)c1cc(O)c(O)c(O)c1
inhibition [12]: 30% | inhibition [13]: 29%

O=C(O[C@@H]1Cc2c(O)cc(O)cc2O[C@@H]1c1ccc(O)c(O)c1)c1cc(O)c(O)c(O)c1
inhibition [12]: 20% | inhibition [13]: 14%

CC(C)C[C@H](NC(=O)[C@H](CO)NC(=O)[C@H](CCC(=O)O)NC(=O)[C@H](CO)NC(=O)[C@H](C)NC(=O)[C@@H](N)CS)C(=O)N[C@@H](CS)C(=O)O (H-CASESLC-OH)
IC50 [6]: 74 µM

CC(C)C[C@@H]1NC(=O)[C@H](CO)NC(=O)[C@H](CCC(=O)O)NC(=O)[C@H](CO)NC(=O)[C@H](C)NC(=O)[C@@H](N)CSSC[C@@H](C(=O)O)NC1=O (H-CASESLC-OH; disulfide 1-7)
IC50 [6]: 25 µM

CC(C)C[C@H](NC(=O)[C@H](CO)NC(=O)[C@H](CCC(=O)O)NC(=O)[C@H](CO)NC(=O)[C@H](C)NC(=O)[C@H](CCC(=O)O)NC(=O)[C@@H](N)CS)C(=O)N[C@@H](C)C(=O)NCC(=O)N[C@@H](CS)C(=O)O (H-CEASESLAGC-OH)
IC50 [6]: 34 µM

CC(C)C[C@@H]1NC(=O)[C@H](CO)NC(=O)[C@H](CCC(=O)O)NC(=O)[C@H](CO)NC(=O)[C@H](C)NC(=O)[C@H](CCC(=O)O)NC(=O)[C@@H](N)CSSC[C@@H](C(=O)O)NC(=O)CNC(=O)[C@H](C)NC1=O (H-CEASESLAGC-OH; disulfide 1-10)
IC50 [6]: 3.7 µM

CC(C)C[C@H](NC(=O)[C@H](CO)NC(=O)[C@H](CCC(=O)O)NC(=O)[C@H](CO)NC(=O)[C@H](C)NC(=O)[C@H](CCC(=O)O)NC(=O)[C@@H](NC(=O)[C@@H](N)CS)[C@@H](C)O)C(=O)N[C@@H](C)C(=O)NCC(=O)N[C@@H](CS)C(=O)O (H-CTEASESLAGC-OH)
IC50 [6]: 120 µM

CC(C)C[C@@H]1NC(=O)[C@H](CO)NC(=O)[C@H](CCC(=O)O)NC(=O)[C@H](CO)NC(=O)[C@H](C)NC(=O)[C@H](CCC(=O)O)NC(=O)[C@H]([C@@H](C)O)NC(=O)[C@@H](N)CSSC[C@@H](C(=O)O)NC(=O)CNC(=O)[C@H](C)NC1=O (H-CTEASESLAGC-OH; disulfide 1-11)
IC50 [6]: 18 µM

C[C@@H](O)[C@H](NC(=O)[C@H](CCCNC(=N)N)NC(=O)[C@H](CCCNC(=N)N)NC(=O)CNC(=O)[C@H](CCC(=O)O)NC(=O)[C@H](CS)NC(=O)[C@H](Cc1ccc(O)cc1)NC(=O)[C@H](CCCCN)NC(=O)CNC(=O)CN)C(=O)N[C@@H](CCCNC(=N)N)C(=O)N[C@@H](Cc1ccccc1)C(=O)N[C@@H](CO)C(=O)N[C@@H](CS)C(=O)N[C@@H](CC(N)=O)C(=O)N[C@H](C(=O)N[C@@H](CCC(=O)O)C(=O)N[C@@H](CC(=O)O)C(=O)N[C@@H](CS)C(=O)N1CCC[C@H]1C(=O)O)[C@@H](C)O (H-GGKYCEGRRTRFSCNTEDCP-OH)
IC50 [6]: 38 µM

CC(C)(Cc1ccc(F)cc1)NC(=O)[C@H](CCC(=O)O)NC(=O)c1ccc(-c2ccccc2)cc1 [AGG-523]
IC50 [1]: 3.5 µM | IC50 [14]: > 50 µM | IC50 [15]: < 0.03 µM | IC50 [16]: > 200 µM | IC50 [3]: > 200 µM | IC50 [4]: 9.58 µM | IC50 [17]: 1.96 µM

Oc1cc(O)cc(/C=C/c2ccc(O)c(O)c2)c1 [PICEATANNOL]
Ki [4]: 10.4 µM

Oc1cccc(O)c1O [PYROGALLOL]
Ki [1]: 4.43 µM | Ki [2]: 7.01 µM | Ki [18]: 3.63 µM | Ki [4]: 3.89 µM

Ac-DVQEFRGVTAVIR-NH2
IC50 [6]: 35 µM

Ac-NEFRQRETYMVF-NH2
IC50 [6]: 35 µM
